In PubChem BioAssay (NCI):
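A five-concentration, 48-hour dose response in 96-well plates underlies each endpoint, interpolated linearly between surrounding concentrations. Definition used: TGI = concentration required for complete inhibition of growth.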

How the values were obtained:
Assay in all cases: NCI tumour cell line growth inhibition, 48 h
[1] = system: HOP-62 NSCLC
[2] = system: RXF 393 renal
[3] = system: IGROV1 ovarian
[4] = system: LOX IMVI melanoma
[5] = system: MALME-3M melanoma
[6] = system: OVCAR-3 ovarian
[7] = system: UO-31 renal
[8] = system: NCI-H460 lung
[9] = system: CAKI-1 renal
[10] = system: SN12C renal
[11] = system: U251 CNS
[12] = system: SNB-78 CNS
[13] = system: M19-MEL melanoma
[14] = system: OVCAR-8 ovarian
[15] = system: SNB-75 CNS
[16] = system: SK-MEL-2 melanoma
[17] = system: DLD-1 colon
[18] = system: RXF-631 renal
[19] = system: SW-620 colon
[20] = system: HL-60(TB) leukemia
[21] = system: MOLT-4 leukemia
[22] = system: LXFL 529 NSCLC
[23] = system: UACC-257 melanoma
[24] = system: KM12 colon
[25] = system: HCT-15 colon
[26] = system: K-562 leukemia
[27] = system: SF-539 CNS
[28] = system: NCI-H226 lung
[29] = system: KM20L2 colon
[30] = system: SK-MEL-28 melanoma
[31] = system: DMS 114 small cell lung
[32] = system: A498 renal
[33] = system: TK-10 renal
[34] = system: EKVX NSCLC
[35] = system: M14 melanoma
[36] = system: SF-268 CNS
[37] = system: COLO 205 colon
[38] = system: HOP-18 NSCLC
[39] = system: NCI-H522 lung
[40] = system: SR leukemia
[41] = system: DMS 273 small cell lung
[42] = system: HT29 colon
[43] = system: SK-OV-3 ovarian
[44] = system: SNB-19 CNS
[45] = system: NCI-H23 lung
[46] = system: HCC-2998 colon
[47] = system: SF-295 CNS
[48] = system: UACC-62 melanoma
[49] = system: OVCAR-5 ovarian
[50] = system: CCRF-CEM leukemia
[51] = system: HCT-116 colon
[52] = system: XF 498 CNS
[53] = system: RPMI-8226 leukemia
[54] = system: A549 NSCLC
[55] = system: OVCAR-4 ovarian
[56] = system: SK-MEL-5 melanoma
[57] = system: ACHN renal
[58] = system: 786-0 renal
[59] = system: HOP-92 NSCLC

SMILES: O=S1c2ccccc2N=C(c2cccc3ccccc23)CC1c1cccc2ccccc12 (configuration not stated)
- TGI [1]: > 100 µM
- TGI [2]: 38.7 µM
- TGI [3]: 34 µM
- TGI [4]: 27.9 µM
- TGI [5]: 37.4 µM
- TGI [6]: 40.5 µM
- TGI [7]: 67.8 µM
- TGI [8]: 40.6 µM
- TGI [9]: 71.2 µM
- TGI [10]: 30.5 µM
- TGI [11]: 37.7 µM
- TGI [12]: > 100 µM
- TGI [13]: 4.33 µM
- TGI [14]: 46.3 µM
- TGI [15]: 49.1 µM
- TGI [16]: 40.9 µM
- TGI [17]: 62.8 µM
- TGI [18]: > 100 µM
- TGI [19]: 37.5 µM
- TGI [20]: 30.5 µM
- TGI [21]: 55.3 µM
- TGI [22]: 33.6 µM
- TGI [23]: 31.2 µM
- TGI [24]: 32 µM
- TGI [25]: 32 µM
- TGI [26]: 60.5 µM
- TGI [27]: 40.6 µM
- TGI [28]: 42.2 µM
- TGI [29]: > 100 µM
- TGI [30]: 20.6 µM
- TGI [31]: 34.8 µM
- TGI [32]: 39.2 µM
- TGI [33]: 89.3 µM
- TGI [34]: 84.1 µM
- TGI [35]: 28.1 µM
- TGI [36]: 57.5 µM
- TGI [37]: 37.6 µM
- TGI [38]: 25.2 µM
- TGI [39]: 30 µM
- TGI [40]: 49.2 µM
- TGI [41]: > 100 µM
- TGI [42]: 49.5 µM
- TGI [43]: > 100 µM
- TGI [44]: 66.7 µM
- TGI [45]: 39.1 µM
- TGI [46]: 31.8 µM
- TGI [47]: 71.2 µM
- TGI [48]: 26.4 µM
- TGI [49]: 58.3 µM
- TGI [50]: 49.1 µM
- TGI [51]: 39.3 µM
- TGI [52]: 37.5 µM
- TGI [53]: 50.9 µM
- TGI [54]: 36.7 µM
- TGI [55]: 27.8 µM
- TGI [56]: 19.9 µM
- TGI [57]: 56.4 µM
- TGI [58]: 76.6 µM

SMILES: O=C(CCc1nnc2s/c(=C\c3ccccc3[N+](=O)[O-])c(=O)n12)Nc1cc(Cl)c(Cl)cc1Cl
- TGI [1]: 64.1 µM
- TGI [2]: 57.6 µM
- TGI [3]: > 100 µM
- TGI [4]: 46.9 µM
- TGI [5]: > 100 µM
- TGI [6]: 35.8 µM
- TGI [7]: 91.4 µM
- TGI [8]: 75.7 µM
- TGI [10]: 63.8 µM
- TGI [11]: 30.8 µM
- TGI [12]: > 100 µM
- TGI [13]: > 100 µM
- TGI [14]: 89.9 µM
- TGI [15]: 55.8 µM
- TGI [16]: > 100 µM
- TGI [17]: 66.6 µM
- TGI [18]: > 100 µM
- TGI [21]: 71.6 µM
- TGI [22]: 53.8 µM
- TGI [23]: > 100 µM
- TGI [24]: 43.4 µM
- TGI [25]: > 100 µM
- TGI [26]: 72 µM
- TGI [27]: 46 µM
- TGI [28]: 40.6 µM
- TGI [29]: > 100 µM
- TGI [30]: > 100 µM
- TGI [31]: > 100 µM
- TGI [32]: 53.6 µM
- TGI [33]: 87.9 µM
- TGI [34]: > 100 µM
- TGI [35]: > 100 µM
- TGI [36]: 78.1 µM
- TGI [37]: > 100 µM
- TGI [38]: 94.4 µM
- TGI [39]: > 100 µM
- TGI [41]: > 100 µM
- TGI [42]: > 100 µM
- TGI [43]: > 100 µM
- TGI [44]: 74.3 µM
- TGI [45]: > 100 µM
- TGI [46]: > 100 µM
- TGI [47]: 49.5 µM
- TGI [48]: > 100 µM
- TGI [59]: 51.2 µM
- TGI [49]: > 100 µM
- TGI [50]: 82.6 µM
- TGI [51]: 31.4 µM
- TGI [52]: 58 µM
- TGI [54]: > 100 µM
- TGI [55]: 34.6 µM
- TGI [56]: > 100 µM
- TGI [57]: > 100 µM
- TGI [58]: 31.3 µM

SMILES: C[C@H](C(=O)C12CC3CC(CC(C3)C1)C2)[C@H](O)c1ccccc1
- TGI [2]: 48.3 µM
- TGI [3]: > 100 µM
- TGI [4]: 32 µM
- TGI [6]: 63.3 µM
- TGI [7]: 73.5 µM
- TGI [8]: > 100 µM
- TGI [9]: 91.2 µM
- TGI [10]: 36.1 µM
- TGI [12]: > 100 µM
- TGI [14]: > 100 µM
- TGI [15]: 75.9 µM
- TGI [16]: 38.8 µM
- TGI [17]: > 100 µM
- TGI [18]: > 100 µM
- TGI [19]: > 100 µM
- TGI [20]: 58.1 µM
- TGI [21]: > 100 µM
- TGI [22]: > 100 µM
- TGI [23]: 78.4 µM
- TGI [24]: 70.7 µM
- TGI [26]: > 100 µM
- TGI [27]: 96.5 µM
- TGI [28]: 36.5 µM
- TGI [29]: 43.9 µM
- TGI [30]: 31.4 µM
- TGI [33]: > 100 µM
- TGI [34]: > 100 µM
- TGI [35]: > 100 µM
- TGI [36]: 30.2 µM
- TGI [37]: 28.3 µM
- TGI [38]: > 100 µM
- TGI [39]: 57.8 µM
- TGI [40]: 78.4 µM
- TGI [42]: 34.1 µM
- TGI [43]: > 100 µM
- TGI [44]: > 100 µM
- TGI [45]: > 100 µM
- TGI [47]: > 100 µM
- TGI [48]: > 100 µM
- TGI [59]: 45.8 µM
- TGI [49]: 56.2 µM
- TGI [50]: > 100 µM
- TGI [51]: 32.3 µM
- TGI [52]: 67.7 µM
- TGI [53]: > 100 µM
- TGI [54]: > 100 µM
- TGI [55]: > 100 µM
- TGI [56]: 32 µM
- TGI [57]: > 100 µM
- TGI [58]: 55.7 µM
